Test results reported in ChEMBL document CHEMBL3351642, “Synthesis and structure-activity relationships of PI3K/mTOR dual inhibitors from a series of 2-amino-4-methylpyrido[2,3-d]pyrimidine derivatives” (Bioorg Med Chem Lett, 2014).

Tests used:
[1] = target: Phosphatidylinositol 4,5-bisphosphate 3-kinase catalytic subunit alpha isoform (Homo sapiens, UniProt P42336); assay: Inhibition of PI3Kalpha (unknown origin) using PIP2/PS as substrate preincubated for 15 mins before substrate addition by luciferase-based luminescence assay
Phosphatidylinositol 4,5-bisphosphate 3-kinase catalytic subunit alpha isoform, sequence (P42336 whole entry, canonical isoform): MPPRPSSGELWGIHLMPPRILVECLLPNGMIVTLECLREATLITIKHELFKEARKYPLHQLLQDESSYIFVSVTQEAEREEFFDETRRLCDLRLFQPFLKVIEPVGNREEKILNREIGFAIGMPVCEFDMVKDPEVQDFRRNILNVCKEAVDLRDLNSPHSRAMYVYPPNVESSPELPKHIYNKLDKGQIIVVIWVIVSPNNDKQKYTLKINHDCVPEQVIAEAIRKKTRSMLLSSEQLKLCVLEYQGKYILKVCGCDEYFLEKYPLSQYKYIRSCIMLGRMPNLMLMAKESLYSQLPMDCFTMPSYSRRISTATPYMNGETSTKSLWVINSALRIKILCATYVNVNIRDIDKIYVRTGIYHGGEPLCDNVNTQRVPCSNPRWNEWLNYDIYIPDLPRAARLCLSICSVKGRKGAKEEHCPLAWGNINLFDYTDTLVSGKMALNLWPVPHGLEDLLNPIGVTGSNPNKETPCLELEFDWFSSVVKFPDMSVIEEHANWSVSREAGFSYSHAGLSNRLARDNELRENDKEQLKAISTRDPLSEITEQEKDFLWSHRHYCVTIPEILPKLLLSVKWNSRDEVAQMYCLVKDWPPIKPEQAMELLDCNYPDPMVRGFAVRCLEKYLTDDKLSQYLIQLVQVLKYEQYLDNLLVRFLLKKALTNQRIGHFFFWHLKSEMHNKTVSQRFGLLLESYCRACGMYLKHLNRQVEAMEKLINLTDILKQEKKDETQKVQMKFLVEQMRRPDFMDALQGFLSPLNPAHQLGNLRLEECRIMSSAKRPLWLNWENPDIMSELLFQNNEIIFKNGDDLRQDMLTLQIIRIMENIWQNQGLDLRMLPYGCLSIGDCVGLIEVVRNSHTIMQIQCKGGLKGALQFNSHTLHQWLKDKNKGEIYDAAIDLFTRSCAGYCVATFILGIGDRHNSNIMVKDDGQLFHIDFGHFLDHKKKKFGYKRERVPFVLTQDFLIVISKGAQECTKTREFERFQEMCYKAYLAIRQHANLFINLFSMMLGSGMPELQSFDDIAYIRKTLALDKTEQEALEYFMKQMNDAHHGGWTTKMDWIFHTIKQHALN

[2] = target: Serine/threonine-protein kinase mTOR (Homo sapiens, UniProt P42345); assay: Inhibition of mTOR (unknown origin) assessed as inhibition of 4EBP-1 phosphorylation preincubated for 15 mins before substrate addition by TR-FRET assay
[3] = Antiproliferative activity against human SKOV3 cells after 3 days by CellTiter-Glo assay; conditions: SK-OV-3, 72 h
[4] = Antiproliferative activity against human U87MG cells after 4 days by CellTiter-Glo assay; conditions: U-87 MG, 96 h
[5] = Apparent permeability from apical to basolateral side of human Caco2 cells at 10 uM after 90 mins by LC/MS/MS analysis; format: ADME, cell-based; conditions: Caco-2
[6] = Apparent permeability from basolateral to apical side of human Caco2 cells at 10 uM after 90 mins by LC/MS/MS analysis; format: ADME, cell-based; conditions: Caco-2
[7] = Efflux ratio of apparent permeability from basolateral to apical side to apical to basolateral of human Caco2 cells; format: ADME, cell-based; conditions: Caco-2

IC50 [1] [nM]	IC50 [2] [nM]	SMILES	also measured
6.87	37.6	COc1ncc(-c2cnc3nc(N)nc(C)c3c2)cc1NS(=O)(=O)c1ccc(Cl)s1	–
2.82	45.8	COc1ncc(-c2cnc3nc(N)nc(C)c3c2)cc1NS(=O)(=O)c1ccc(C#N)cc1	IC50 [3]: 9150 nM; IC50 [4]: 2440 nM; Papp A→B at 1.5 h, 10 µM [5]: 1.04 ×10⁻⁶ cm/s; Papp B→A at 1.5 h, 10 µM [6]: 14 ×10⁻⁶ cm/s; efflux ratio [7]: 13.5
76.5	–	Cc1nc(N)nc2ncc(-c3cnc4[nH]cc(NS(=O)(=O)c5ccc(F)cc5F)c4c3)cc12	–
67	180	COc1ccc(S(=O)(=O)Nc2cc(-c3cnc4nc(N)nc(C)c4c3)cnc2OC)cc1	–
> 1000	–	COc1ncc(-c2cnc3nc(N)nc(C)c3c2)cc1NC(=O)c1ccc(F)cc1F	–
> 1000	–	COc1ncc(-c2cnc3nc(N)nc(C)c3c2)cc1NC(=O)Nc1ccc(F)cc1F	–
82.4	–	Cc1nc(N)nc2ncc(-c3cnc4[nH]nc(NS(=O)(=O)c5ccc(F)cc5F)c4c3)cc12	–
8.41	67	COc1ncc(-c2cnc3nc(N)nc(C)c3c2)cc1NS(=O)(=O)c1ccc(C(F)(F)F)cc1	–
63.1	79.2	COc1ncc(-c2cnc3nc(N)nc(C)c3c2)cc1NS(=O)(=O)c1ccccc1	–
23.3	245	COc1ncc(-c2cnc3nc(N)nc(C)c3c2)cc1NS(=O)(=O)c1cccs1	–

Further lines, the molecule ahead of its results:

SMILES	IC50 [1] [nM]	IC50 [2] [nM]	also measured
COc1ncc(-c2cnc3nc(N)nc(C)c3c2)cc1N	632	–	–
COc1ccc(-c2cnc3nc(N)nc(C)c3c2)cn1	414	–	–
Cc1nc(N)nc2ncc(-c3cnc4[nH]ccc4c3)cc12	38	–	–
CCCCS(=O)(=O)Nc1cc(-c2cnc3nc(N)nc(C)c3c2)cnc1OC	47.5	–	–
COc1ncc(-c2cnc3nc(N)nc(C)c3c2)cc1NS(=O)(=O)C1CC1	55.6	–	–
COc1ccc(-c2cc3c(C)nc(N)nc3n([C@H]3CC[C@H](OCCO)CC3)c2=O)cn1 [PF-04691502]	–	–	IC50 [3]: 290 nM; IC50 [4]: 520 nM; Papp A→B at 1.5 h, 10 µM [5]: 25.7 ×10⁻⁶ cm/s; Papp B→A at 1.5 h, 10 µM [6]: 32.5 ×10⁻⁶ cm/s
COc1ncc(-c2cnc3nc(N)nc(C)c3c2)cn1	218	–	–
COc1ncc(-c2cnc3nc(N)nc(C)c3c2)cc1F	117	–	–
COc1ncc(-c2cnc3nc(N)nc(C)c3c2)cc1NS(C)(=O)=O	145	–	–
COc1ncc(-c2cnc3nc(N)nc(C)c3c2)cc1NC(=O)C(F)(F)F	> 1000	–	–
COc1ncc(-c2cnc3nc(N)nc(C)c3c2)cc1NS(=O)(=O)c1cccnc1	7.82	111	–
